# Data published in PubChem BioAssay AID1745844 (Carcinogenic Potency Database (CPDB), 2022).
# Several values for one entry are separate records, joined by “and”; a condition that tells them apart may be missing. Equal values may be shown once. Activity calls are given as the source filed them. The rule behind the calls is not given here.
# Tested on: rodent lifetime carcinogenesis bioassay, tumor incidence TD50
# Assay: chronic cancer bioassays in animals – CPDB, compiled studies (AID 1745844)
# [1] = mouse, strain B6AKF1, females, oral dosing, site: liver, lesion: hepatoma, dosed 76 weeks, study length 76 weeks
# [2] = mouse, strain B6AKF1, females, oral dosing, site: lung, lesion: adenoma, dosed 76 weeks, study length 76 weeks
# [3] = mouse, strain B6AKF1, males, oral dosing, site: any site (literature study), lesion: several types, types named in the paper, dosed 76 weeks, study length 76 weeks
# [4] = mouse, strain B6AKF1, males, oral dosing, site: liver, lesion: hepatoma, dosed 76 weeks, study length 76 weeks
# [5] = mouse, strain B6AKF1, males, oral dosing, site: lung, lesion: adenoma, dosed 76 weeks, study length 76 weeks
# [6] = mouse, strain B6C3F1, females, oral dosing, site: any site (literature study), lesion: several types, types named in the paper, dosed 76 weeks, study length 76 weeks
# [7] = mouse, strain B6C3F1, females, oral dosing, site: liver, lesion: hepatoma, dosed 76 weeks, study length 76 weeks
# [8] = mouse, strain B6C3F1, males, oral dosing, site: liver, lesion: hepatoma, dosed 76 weeks, study length 76 weeks
# [9] = mouse, strain B6C3F1, males, oral dosing, site: lung, lesion: several types, types named in the paper, dosed 76 weeks, study length 76 weeks
smiles,measurement,setting,value
CCCCOCCOCCOCc1cc2c(cc1CCC)OCO2,carcinogen call,[1],negative (inactive)
same,TD50,[2],265 mg/kg/day
same,carcinogen call,[2],negative (inactive)
same,carcinogen call,[3],negative (inactive)
same,carcinogen call,[4],negative (inactive)
same,carcinogen call,[5],negative (inactive)
same,carcinogen call,"mouse, strain B6C3F1, females, in feed, site: any site (literature study), lesion: several types, types named in the paper, dosed 112 weeks, study length 112 weeks",negative (inactive)
same,TD50,"mouse, strain B6C3F1, females, in feed, site: liver, lesion: hepatocellular adenoma + hepatocellular carcinoma + neoplastic nodule, dosed 112 weeks, study length 112 weeks",3260 mg/kg/day
same,carcinogen call,"mouse, strain B6C3F1, females, oral dosing, site: any site (literature study), lesion: one or several types, types not named, dosed 76 weeks, study length 76 weeks",negative (inactive)
same,TD50,[6],83.1 mg/kg/day
same,carcinogen call,[7],negative (inactive)
same,carcinogen call,"mouse, strain B6C3F1, females, oral dosing, site: lung, lesion: several types, types named in the paper, dosed 76 weeks, study length 76 weeks",negative (inactive)
same,carcinogen call,"mouse, strain B6C3F1, males, in feed, site: any site (literature study), lesion: several types, types named in the paper, dosed 112 weeks, study length 112 weeks",negative (inactive)
same,TD50,"mouse, strain B6C3F1, males, oral dosing, site: all sites, lesion: reticulum-cell sarcoma, dosed 76 weeks, study length 76 weeks",34.8 mg/kg/day
same,TD50,[8],186 mg/kg/day (inactive) and 98.5 mg/kg/day
same,carcinogen call,[9],negative (inactive)
same,TD50,"mouse, strain Charles River CD1, females, in feed, site: liver, lesion: basophil adenoma, dosed 79 weeks, study length 79 weeks",4540 mg/kg/day
same,TD50,"mouse, strain Charles River CD1, females, in feed, site: liver, lesion: eosinophilic adenoma, dosed 79 weeks, study length 79 weeks",1120 mg/kg/day
same,TD50,"mouse, strain Charles River CD1, females, in feed, site: liver, lesion: hepatocellular adenoma, dosed 52 weeks, study length 52 weeks",2380 mg/kg/day
same,TD50,"mouse, strain Charles River CD1, females, in feed, site: liver, lesion: hepatocellular adenoma, dosed 79 weeks, study length 79 weeks",825 mg/kg/day
same,TD50,"mouse, strain Charles River CD1, females, in feed, site: liver, lesion: hepatocellular carcinoma, dosed 52 weeks, study length 52 weeks",756 mg/kg/day
same,TD50,"mouse, strain Charles River CD1, females, in feed, site: liver, lesion: several types, types named in the paper, dosed 52 weeks, study length 52 weeks",516 mg/kg/day
same,TD50,"mouse, strain Charles River CD1, males, in feed, site: liver, lesion: basophil adenoma, dosed 79 weeks, study length 79 weeks",844 mg/kg/day
same,TD50,"mouse, strain Charles River CD1, males, in feed, site: liver, lesion: eosinophilic adenoma, dosed 79 weeks, study length 79 weeks",355 mg/kg/day
same,TD50,"mouse, strain Charles River CD1, males, in feed, site: liver, lesion: hepatocellular adenoma, dosed 52 weeks, study length 52 weeks",1060 mg/kg/day
same,TD50,"mouse, strain Charles River CD1, males, in feed, site: liver, lesion: hepatocellular adenoma, dosed 79 weeks, study length 79 weeks",160 mg/kg/day
same,TD50,"mouse, strain Charles River CD1, males, in feed, site: liver, lesion: hepatocellular carcinoma, dosed 52 weeks, study length 52 weeks",410 mg/kg/day
same,TD50,"mouse, strain Charles River CD1, males, in feed, site: liver, lesion: hepatocellular carcinoma, dosed 79 weeks, study length 79 weeks",3470 mg/kg/day
same,TD50,"mouse, strain Charles River CD1, males, in feed, site: liver, lesion: mixed cell adenoma, dosed 79 weeks, study length 79 weeks",2630 mg/kg/day
same,TD50,"mouse, strain Charles River CD1, males, in feed, site: liver, lesion: several types, types named in the paper, dosed 52 weeks, study length 52 weeks",229 mg/kg/day
same,TD50,"rat, strain Charles River CD (Sprague-Dawley), females, in feed, site: liver, lesion: hepatocellular carcinoma, dosed 104 weeks, study length 104 weeks",12800 mg/kg/day (inactive)
same,TD50,"rat, strain Charles River CD (Sprague-Dawley), males, in feed, site: liver, lesion: hepatocellular adenoma, dosed 104 weeks, study length 104 weeks",12800 mg/kg/day (inactive)
same,TD50,"rat, strain Charles River CD (Sprague-Dawley), males, in feed, site: liver, lesion: hepatocellular carcinoma, dosed 104 weeks, study length 104 weeks",78500 mg/kg/day (inactive)
same,carcinogen call,"rat, strain F344/DuCrj, females, in feed, site: any site (literature study), lesion: several types, types named in the paper, dosed 104 weeks, study length 110 weeks",negative (inactive)
same,TD50,"rat, strain F344/DuCrj, females, in feed, site: liver, lesion: cholangioma, cystic, dosed 96 weeks, study length 96 weeks",19100 mg/kg/day
same,TD50,"rat, strain F344/DuCrj, females, in feed, site: liver, lesion: hepatocellular adenoma, dosed 96 weeks, study length 96 weeks",2460 mg/kg/day
same,TD50,"rat, strain F344/DuCrj, females, in feed, site: liver, lesion: hepatocellular carcinoma, dosed 96 weeks, study length 96 weeks",2220 mg/kg/day
same,TD50,"rat, strain F344/DuCrj, females, in feed, site: liver, lesion: hepatocellular tumor, dosed 96 weeks, study length 96 weeks",977 mg/kg/day
same,carcinogen call,"rat, strain F344/DuCrj, females, in feed, site: liver, lesion: neoplastic nodule, dosed 104 weeks, study length 110 weeks",negative (inactive)
same,carcinogen call,"rat, strain F344/DuCrj, males, in feed, site: any site (literature study), lesion: several types, types named in the paper, dosed 104 weeks, study length 110 weeks",negative (inactive)
same,TD50,"rat, strain F344/DuCrj, males, in feed, site: liver, lesion: cholangioma, cystic, dosed 95 weeks, study length 95 weeks",30200 mg/kg/day
same,TD50,"rat, strain F344/DuCrj, males, in feed, site: liver, lesion: hepatocellular adenoma, dosed 95 weeks, study length 95 weeks",1400 mg/kg/day
same,TD50,"rat, strain F344/DuCrj, males, in feed, site: liver, lesion: hepatocellular carcinoma, dosed 95 weeks, study length 95 weeks",806 mg/kg/day
same,TD50,"rat, strain F344/DuCrj, males, in feed, site: liver, lesion: hepatocellular carcinoma, dosed 104 weeks, study length 110 weeks",20100 mg/kg/day (inactive)
same,TD50,"rat, strain F344/DuCrj, males, in feed, site: liver, lesion: hepatocellular tumor, dosed 95 weeks, study length 95 weeks",468 mg/kg/day
same,TD50,"rat, strain F344/DuCrj, males, in feed, site: liver, lesion: neoplastic nodule, dosed 104 weeks, study length 110 weeks",7690 mg/kg/day (inactive)
same,TD50,"rat, strain Fischer 344, females, in feed, site: all sites, lesion: lymphoma, dosed 107 weeks, study length 107 weeks",1180 mg/kg/day (inactive)
same,TD50,"rat, strain Fischer 344, females, in feed, site: any site (literature study), lesion: several types, types named in the paper, dosed 107 weeks, study length 107 weeks",7820 mg/kg/day
same,carcinogen call,"rat, strain Fischer 344, males, in feed, site: any site (literature study), lesion: several types, types named in the paper, dosed 107 weeks, study length 107 weeks",negative (inactive)
same,TD50,"rat, strain Wistar, both sexes, in feed, site: liver, lesion: hepatocellular carcinoma, dosed 95 weeks, study length 104 weeks",26100 mg/kg/day (inactive)
same,TD50,"rat, strain Wistar, both sexes, in feed, site: liver, lesion: hepatoma, dosed 95 weeks, study length 104 weeks",22500 mg/kg/day (inactive)
FC(Cl)C(F)(F)F (stereo unspecified),TD50,"rat, strain Charles River CD (Sprague-Dawley), females, inhaled, site: mammary gland, lesion: fibroadenoma, dosed 104 weeks, study length 104 weeks",56300 mg/kg/day (inactive)
same,TD50,"rat, strain Charles River CD (Sprague-Dawley), females, inhaled, site: mammary gland, lesion: several types, types named in the paper, dosed 104 weeks, study length 104 weeks",54000 mg/kg/day (inactive)
CCOC(=O)C(C)(C)Oc1ccc(Cl)cc1,TD50,"mouse, strain AP Alderly Park, females, in feed, site: liver, lesion: hepatocellular adenoma, dosed 78 weeks, study length 78 weeks",1480 mg/kg/day (inactive)
same,TD50,"mouse, strain AP Alderly Park, males, in feed, site: liver, lesion: hepatocellular adenoma, dosed 78 weeks, study length 78 weeks",313 mg/kg/day (inactive)
same,TD50,"mouse, strain AP Alderly Park, males, in feed, site: liver, lesion: hepatocellular carcinoma, dosed 78 weeks, study length 78 weeks",9710 mg/kg/day (inactive)
same,TD50,"mouse, strain C57BL/10J, females, in feed, site: liver, lesion: hepatocellular adenoma, dosed 78 weeks, study length 78 weeks",14700 mg/kg/day (inactive)
same,carcinogen call,"mouse, strain C57BL/10J, females, in feed, site: lung, lesion: one or several types, types not named, dosed 78 weeks, study length 78 weeks",negative (inactive)
same,TD50,"mouse, strain C57BL/10J, males, in feed, site: liver, lesion: hepatocellular adenoma, dosed 78 weeks, study length 78 weeks",3640 mg/kg/day (inactive)
same,carcinogen call,"mouse, strain C57BL/10J, males, in feed, site: lung, lesion: one or several types, types not named, dosed 78 weeks, study length 78 weeks",negative (inactive)
same,TD50,"rat, strain Fischer 344, males, in feed, site: liver, lesion: hepatocellular carcinoma, dosed 121 weeks, study length 121 weeks",169 mg/kg/day
same,TD50,"rat, strain Fischer 344, males, in feed, site: pancreas, lesion: acinar-cell carcinoma, dosed 121 weeks, study length 121 weeks",1300 mg/kg/day
C=CC(=O)c1ccc2c(c1)OCO2,carcinogen call,"rat, strain Charles River CD (Sprague-Dawley), males, in feed, site: liver, lesion: carcinoma, dosed 73 weeks, study length 95 weeks",negative (inactive)
c1ccc2sc(SSc3nc4ccccc4s3)nc2c1,TD50,"mouse, strain B6AKF1, females, oral dosing, site: any site (literature study), lesion: several types, types named in the paper, dosed 76 weeks, study length 76 weeks",1380 mg/kg/day (inactive)
same,carcinogen call,[1],negative (inactive)
same,carcinogen call,[2],negative (inactive)
same,TD50,[3],511 mg/kg/day (inactive)
same,carcinogen call,[4],negative (inactive)
same,TD50,[5],1130 mg/kg/day (inactive)
same,TD50,[6],432 mg/kg/day (inactive)
same,carcinogen call,[7],negative (inactive)
same,TD50,"mouse, strain B6C3F1, females, oral dosing, site: lung, lesion: adenoma, dosed 76 weeks, study length 76 weeks",669 mg/kg/day (inactive)
same,TD50,"mouse, strain B6C3F1, males, oral dosing, site: any site (literature study), lesion: several types, types named in the paper, dosed 76 weeks, study length 76 weeks",401 mg/kg/day (inactive)
same,TD50,[8],621 mg/kg/day (inactive)
same,carcinogen call,[9],negative (inactive)
CC(=O)O[C@]1(C(C)=O)CC[C@H]2[C@@H]3C=C(Cl)C4=CC(=O)CC[C@]4(C)[C@H]3CC[C@@]21C,TD50,"mouse, strain C3H (MTV+), females, in feed, site: mammary tissue, wider than the gland, lesion: one or several types, types not named, dosed 104 weeks, study length 104 weeks",3.77 mg/kg/day
